Counter-ions that a name gives are not always drawn. Like-named read-outs stand apart in the source and are kept apart here.
Target: T1, tankyrase 1 (Homo sapiens, UniProt O95271)
T1 construct: purchased Trevigen 4700-096-K
T1 sequence (O95271 1-1327): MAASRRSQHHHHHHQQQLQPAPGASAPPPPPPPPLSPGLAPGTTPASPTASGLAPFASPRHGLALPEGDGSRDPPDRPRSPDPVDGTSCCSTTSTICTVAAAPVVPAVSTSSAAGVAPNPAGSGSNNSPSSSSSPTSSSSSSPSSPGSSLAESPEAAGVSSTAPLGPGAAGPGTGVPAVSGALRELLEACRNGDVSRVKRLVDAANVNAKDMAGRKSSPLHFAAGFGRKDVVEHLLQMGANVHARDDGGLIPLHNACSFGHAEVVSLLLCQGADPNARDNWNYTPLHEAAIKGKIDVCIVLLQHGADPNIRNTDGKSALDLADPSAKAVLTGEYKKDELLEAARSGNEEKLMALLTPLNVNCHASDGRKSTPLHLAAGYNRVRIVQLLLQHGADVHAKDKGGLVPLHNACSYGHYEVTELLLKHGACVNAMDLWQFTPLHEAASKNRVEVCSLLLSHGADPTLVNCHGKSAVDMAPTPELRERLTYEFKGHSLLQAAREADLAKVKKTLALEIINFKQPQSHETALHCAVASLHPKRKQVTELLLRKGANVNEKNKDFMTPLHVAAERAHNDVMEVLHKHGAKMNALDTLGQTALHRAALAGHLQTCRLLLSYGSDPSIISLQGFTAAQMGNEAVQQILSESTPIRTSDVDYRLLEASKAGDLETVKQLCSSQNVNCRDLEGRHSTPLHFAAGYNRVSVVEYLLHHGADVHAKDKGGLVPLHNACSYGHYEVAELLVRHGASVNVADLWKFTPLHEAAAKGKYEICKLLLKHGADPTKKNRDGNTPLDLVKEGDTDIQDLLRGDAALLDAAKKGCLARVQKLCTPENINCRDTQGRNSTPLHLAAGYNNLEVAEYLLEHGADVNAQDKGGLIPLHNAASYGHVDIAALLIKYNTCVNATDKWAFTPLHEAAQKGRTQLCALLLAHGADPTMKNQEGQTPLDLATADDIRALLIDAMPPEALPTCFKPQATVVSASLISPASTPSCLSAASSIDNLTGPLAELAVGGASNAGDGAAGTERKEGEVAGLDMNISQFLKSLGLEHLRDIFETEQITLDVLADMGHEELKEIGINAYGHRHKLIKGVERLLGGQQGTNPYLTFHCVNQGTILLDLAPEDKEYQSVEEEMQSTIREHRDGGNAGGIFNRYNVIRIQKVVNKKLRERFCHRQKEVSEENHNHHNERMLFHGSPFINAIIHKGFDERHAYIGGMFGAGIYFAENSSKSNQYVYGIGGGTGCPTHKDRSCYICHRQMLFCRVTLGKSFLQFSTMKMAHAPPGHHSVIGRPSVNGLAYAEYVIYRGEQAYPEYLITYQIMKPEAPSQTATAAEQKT
Assay: Analysis of activity of tankyrase 1 (Trevigen kit, ELISA absorbance at 450 nm)
Format: biochemical
Procedure: Activities of novel compounds synthesized according to Examples 1 to 48 against tankyrase 1 were analyzed using a Trevigen kit (Cat. No. 4700-096-K). Poly PAR histone protein-coated 96-well plate, anti-PAR monoclonal antibody and goat anti-mouse IgG-HRP were used for measurement of absorbance by ELISA method. Specifically, 20× I-PAR assay buffer was diluted to 1× by adding water, and 50 μL of the diluted buffer was added to each well of the 96-well plate followed by reacting at rt for 30 min. Then, the supernatant was completely removed from each well and 10 μL of 1× I-PAR assay buffer and 15 μL of assay substrate were added to each well along with 1 μL of a 50× solution of inhibitors to be tested, which were the compounds obtained in the Examples 1 to 48. 10 m Units/μL of tankyrase 1 enzyme was diluted 50-fold with 1× I-PAR assay buffer and 25 μL of the diluted enzyme was added to each well and reacted while stirring at rt for 30 min. One without any compound of the present invention was used as a positive control and another containing 1× I-PAR assay buffer with the same volume instead of tankyrase 1 enzyme was used as a negative control. Upon completion of the reaction, 200 μL of PBSX, which was prepared by adding 0.1% triton X-100 to PBS, was added and removed and this washing process was repeated twice. Washing was repeated twice more using PBS in the same manner. 5× antibody diluent was diluted with distilled water to 1× concentration, 50 μL of the diluted goat anti-mouse IgG-HRP to 1/2000 was added to each well and reacted while stirring at rt for 30 min. Washes were carried out twice using PBSX and PBS, respectively. After addition of 50 μL of TACS-sapphire to each well of the plate, the plate was blocked from light to react for 10 min to 15 min and the color of the reaction solution turned blue. To stop the reaction, 50 μL of 0.2N HCl was added to turn the solution yellow. Finally, the absorbance of the resulting solution was measured at 450 nm.

[1] = Trevigen kit Cat. No. 4700-096-K, reaction at rt for 30 min, read-out: TNKS1 (IC50)

Row | SMILES | IC50 [1] | IC50
1 | Cc1ncc2c(=O)[nH]c(N3CCN(c4c(F)cc(OCCN5CCCC5)cc4F)CC3)nn12 [compound 24, 2-(4-(2,6-Difluoro-4-(2-(pyrrolidin-1-yl)ethoxy)phenyl)piperazin-1-yl)-7-methylimidazo[1,5-f][1,2,4]triazin-4(3H)-one] | 0.0934 µM | 
2 | Cc1ncc2c(=O)[nH]c(N3CCN(c4c(F)cc(OCCN5CCCCC5)cc4F)CC3)nn12 [compound 5, 2-(4-(2,6-Difluoro-4-(2-(piperidin-1-yl)ethoxy)phenyl)piperazin-1-yl)-7-methylimidazo[1,5-f][1,2,4]triazin-4(3H)-one] | 0.0252 µM | 
3 | Cc1ncc2c(=O)[nH]c(N3CCN(c4c(F)cccc4F)CC3)nn12 [compound 15, 2-(4-(2,6-Difluorophenyl)piperazin-1-yl)-7-methylimidazo[1,5-f][1,2,4]triazin-4(3H)-one] |  | 0.0179 µM
4 | Cc1ncc2c(=O)[nH]c(N3CCN(c4c(F)cc(OCCN5CCC(O)CC5)cc4F)CC3)nn12 [compound 36, 2-(4-(2,6-Difluoro-4-(2-(4-hydroxypiperidin-1-yl)ethoxy)phenyl)piperazin-1-yl)-7-methylimidazo[1,5-f][1,2,4]triazin-4(3H)-one] | 0.0652 µM | 
5 | Cc1ncc2c(=O)[nH]c(N3CCN(c4c(F)cc(C(C)O)cc4F)CC3)nn12 (stereo not shown) [compound 13, 2-(4-(2,6-Difluoro-4-(1-hydroxyethyl)phenyl)piperazin-1-yl)-7-methylimidazo[1,5-f][1,2,4]triazin-4(3H)-one] | 0.0457 µM | 
6 | Cc1ncc2c(=O)[nH]c(N3CCN(c4c(F)cc(OCc5ccccc5)cc4F)CC3)nn12 [compound 3, 2-(4-(4-(Benzyloxy)-2,6-difluorophenyl)piperazin-1-yl)-7-methylimidazo[1,5-f][1,2,4]triazin-4(3H)-one] | 0.494 µM | 
7 | Cc1ncc2c(=O)[nH]c(N3CCN(c4c(F)cc(CN5CCN(C)CC5)cc4F)CC3)nn12 [compound 11, 2-(4-(2,6-Difluoro-4-((4-methylpiperazin-1-yl)methyl)phenyl)piperazin-1-yl)-7-methylimidazo[1,5-f][1,2,4]triazin-4(3H)-one] | 0.0441 µM | 
8 | COCCN(C)Cc1cc(F)c(N2CCN(c3nn4c(C)ncc4c(=O)[nH]3)CC2)c(F)c1 [compound 19, 2-(4-(2,6-Difluoro-4-(((2-methoxyethyl)(methyl)amino)methyl)phenyl)piperazin-1-yl)-7-methylimidazo[1,5-f][1,2,4]triazin-4(3H)-one] | 0.102 µM | 
9 | Cc1ncc2c(=O)[nH]c(N3CCN(c4c(F)cc(OCCN5CCOCC5)cc4F)CC3)nn12 [compound 4, 2-(4-(2,6-Difluoro-4-(2-morpholinoethoxy)phenyl)piperazin-1-yl)-7-methylimidazo[1,5-f][1,2,4]triazin-4(3H)-one] | 0.0323 µM | 
10 | Cc1ncc2c(=O)[nH]c(N3CCN(c4c(F)cc(CN5CCOCC5)cc4F)CC3)nn12 [compound 10, 2-(4-(2,6-Difluoro-4-(morpholinomethyl)phenyl)piperazin-1-yl)-7-methylimidazo[1,5-f][1,2,4]triazin-4(3H)-one] | 0.0488 µM | 
11 | Cc1ncc2c(=O)[nH]c(N3CCN(c4ccccc4F)CC3)nn12 [compound 1, 2-(4-(2-Fluorophenyl)piperazin-1-yl)-7-methylimidazo[1,5-f][1,2,4]triazin-4(3H)-one] |  | 0.11 µM
12 | Cc1ncc2c(=O)[nH]c(N3CCN(c4c(F)cc(OCC(O)CO)cc4F)CC3)nn12 (stereo not shown) [compound 9, 2-(4-(4-(2,3-Dihydroxypropoxy)-2,6-difluorophenyl)piperazin-1-yl)-7-methylimidazo[1,5-f][1,2,4]triazin-4(3H)-one] | 0.0795 µM | 
13 | Cc1ncc2c(=O)[nH]c(N3CCN(c4c(F)cc(OCCO)cc4F)CC3)nn12 [compound 7, 2-(4-(2,6-Difluoro-4-(2-hydroxyethoxy)phenyl)piperazin-1-yl)-7-methylimidazo[1,5-f][1,2,4]triazin-4(3H)-one] | 0.0387 µM | 
14 | Cc1ncc2c(=O)[nH]c(N3CCN(c4c(F)cc(OCCOC(=O)[C@H](C)N)cc4F)CC3)nn12 [compound 8, (S)-2-(3,5-Difluoro-4-(4-(7-methyl-4-oxo-3,4-dihydroimidazo[1,5-f][1,2,4]triazin-2-yl)piperazin-1-yl)phenoxy)ethyl 2-aminopropionate hydrochloride] | 0.0436 µM | 
15 | Cc1ncc2c(=O)[nH]c(N3CCN(c4c(F)cc(OCCN5CCC(O)C5)cc4F)CC3)nn12 (stereo not shown) [compound 35, 2-(4-(2,6-Difluoro-4-(2-(3-hydroxypyrrolidin-1-yl)ethoxy)phenyl)piperazin-1-yl)-7-methylimidazo[1,5-f][1,2,4]triazin-4(3H)-one] | 0.102 µM | 
16 | Cc1ncc2c(=O)[nH]c(N3CCN(c4c(F)cc(OC5COC5)cc4F)CC3)nn12 [compound 12, 2-(4-(2,6-Difluoro-4-(oxetan-3-yloxy)phenyl)piperazin-1-yl)-7-methylimidazo[1,5-f][1,2,4]triazin-4(3H)-one] |  | 0.0963 µM
17 | Cc1ncc2c(=O)[nH]c(N3CCN(c4c(F)cc(OCC(=O)N5CCCCC5)cc4F)CC3)nn12 [compound 28, 2-(4-(2,6-Difluoro-4-(2-oxo-2-(piperidin-1-yl)ethoxy)phenyl)piperazin-1-yl)-7-methylimidazo[1,5-f][1,2,4]triazin-4(3H)-one] | 0.0631 µM | 
18 | COCCOc1cc(F)c(C2(O)CCN(c3nn4c(C)ncc4c(=O)[nH]3)CC2)c(F)c1 [compound 17, 2-(4-(2,6-Difluoro-4-(2-methoxyethoxy)phenyl)-4-hydroxypiperidin-1-yl)-7-methylimidazo[5,1-f][1,2,4]triazin-4(3H)-one] | 0.0672 µM | 
19 | Cc1ncc2c(=O)[nH]c(N3CCN(c4c(F)cc(OCCN5CCN(C)CC5=O)cc4F)CC3)nn12 [compound 33, 2-(4-(2,6-Difluoro-4-(2-(4-methyl-2-oxopiperazin-1-yl)ethoxy)phenyl)piperazin-1-yl)-7-methylimidazo[1,5-f][1,2,4]triazin-4(3H)-one] | 0.18 µM | 
20 | COC(C)c1cc(F)c(N2CCN(c3nn4c(C)ncc4c(=O)[nH]3)CC2)c(F)c1 (stereo not shown) [compound 14, 2-(4-(2,6-Difluoro-4-(1-methoxyethyl)phenyl)piperazin-1-yl)-7-methylimidazo[1,5-f][1,2,4]triazin-4(3H)-one] | 0.0692 µM | 
21 | Cc1ncc2c(=O)[nH]c(N3CCN(c4c(F)cc(OCCN=[N+]=[N-])cc4F)CC3)nn12 [compound 31, 2-(4-(4-(2-Azidoethoxy)-2,6-difluorophenyl)piperazin-1-yl)-7-methylimidazo[1,5-f][1,2,4]triazin-4(3H)-one] | 0.171 µM | 
22 | Cc1ncc2c(=O)[nH]c(N3CCN(c4c(F)cc(OCCN5CCC(N)CC5)cc4F)CC3)nn12 [compound 34, 2-(4-(4-(2-(4-Aminopiperidin-1-yl)ethoxy)-2,6-difluorophenyl)piperazin-1-yl)-7-methylimidazo[1,5-f][1,2,4]triazin-4(3H)-one] | 0.0605 µM | 

Source: US10179785B2, “Imidazotriazinone or imidazopyrazinone derivatives, and use thereof” (ST PHARM CO., LTD., priority 2014, dated 2019)
